Experimental data taken from ChEMBL document CHEMBL1909046, “DrugMatrix in vitro pharmacology data”.

Columns and labels:
[1] = target: T1, Alpha-1A adrenergic receptor (Rattus norvegicus, UniProt P43140); experiment: DRUGMATRIX: Alpha-1A adrenergic receptor radioligand binding (ligand: prazosin); assay type: cell membranes, Wistar, Submaxillary gland, Membrane; settings: Not Active = under 50% inhibition at 10 µM
T1 sequence (P43140 whole entry): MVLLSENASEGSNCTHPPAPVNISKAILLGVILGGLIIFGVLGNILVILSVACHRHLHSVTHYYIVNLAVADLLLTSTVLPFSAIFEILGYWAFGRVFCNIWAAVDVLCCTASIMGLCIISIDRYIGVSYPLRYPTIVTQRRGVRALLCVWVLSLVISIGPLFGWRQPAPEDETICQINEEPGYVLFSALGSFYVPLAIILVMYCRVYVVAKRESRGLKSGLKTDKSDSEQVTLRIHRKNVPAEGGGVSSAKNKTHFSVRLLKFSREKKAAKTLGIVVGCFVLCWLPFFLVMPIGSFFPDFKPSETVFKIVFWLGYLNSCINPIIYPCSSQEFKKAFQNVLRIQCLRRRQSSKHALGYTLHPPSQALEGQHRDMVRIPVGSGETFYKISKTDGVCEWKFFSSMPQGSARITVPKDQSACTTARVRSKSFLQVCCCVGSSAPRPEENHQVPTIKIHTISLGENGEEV

B2 bradykinin receptor = target: T2, B2 bradykinin receptor (Homo sapiens, UniProt P30411); assay type: cell membranes, Membrane; settings: chem-1; note: in other assays of this panel Not Active means under 50% inhibition at 10 µM
T2 sequence (P30411 whole entry): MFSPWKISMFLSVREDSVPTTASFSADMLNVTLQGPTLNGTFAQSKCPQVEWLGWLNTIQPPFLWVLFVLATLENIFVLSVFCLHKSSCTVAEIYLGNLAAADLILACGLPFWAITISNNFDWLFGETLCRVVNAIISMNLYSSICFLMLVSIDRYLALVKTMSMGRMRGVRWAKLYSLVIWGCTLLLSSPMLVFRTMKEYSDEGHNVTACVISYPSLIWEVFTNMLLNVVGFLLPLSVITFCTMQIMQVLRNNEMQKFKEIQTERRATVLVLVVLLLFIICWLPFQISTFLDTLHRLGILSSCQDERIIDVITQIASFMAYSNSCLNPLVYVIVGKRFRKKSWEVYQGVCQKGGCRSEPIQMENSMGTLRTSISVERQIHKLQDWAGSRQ

[2] = target: 5-hydroxytryptamine receptor 2B (Homo sapiens, UniProt P41595); assay type: cell membranes, CHO-K1, Membrane; note: in other assays of this panel Not Active means under 50% inhibition at 10 µM
[3] = DRUGMATRIX: Serotonin (5-Hydroxytryptamine) 5-HT3 radioligand binding (ligand: [3H] GR-65630); assay type: cell membranes, Membrane; settings: hek293; Not Active = under 50% inhibition at 10 µM
[4] = target: Prostaglandin G/H synthase 1 (Homo sapiens, UniProt P23219); experiment: biochemical; assay type: tissue-based, Platelet; settings: platelet;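 note: inhibition of COX-1 enzyme activity, with arachidonic acid supplied as substrate; in other assays of this panel Not Active means under 50% inhibition at 10 µM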
[5] = DRUGMATRIX: GABAA, Chloride Channel, TBOB radioligand binding (ligand: [3H] TBOB); assay type: cell membranes, Rattus norvegicus, Wistar, Cerebral cortex, Membrane; settings: Not Active = under 50% inhibition at 10 µM
[6] = target: T3, Amine oxidase [flavin-containing] A (Homo sapiens, UniProt P21397); experiment: DRUGMATRIX: Monoamine Oxidase MAO-A enzyme inhibition (substrate: Kynuramine); design: species or system BTI-TN-5B1-4; settings: bti-tn-5b1-4; Not Active = under 50% inhibition at 10 µM
T3 sequence (P21397 whole entry): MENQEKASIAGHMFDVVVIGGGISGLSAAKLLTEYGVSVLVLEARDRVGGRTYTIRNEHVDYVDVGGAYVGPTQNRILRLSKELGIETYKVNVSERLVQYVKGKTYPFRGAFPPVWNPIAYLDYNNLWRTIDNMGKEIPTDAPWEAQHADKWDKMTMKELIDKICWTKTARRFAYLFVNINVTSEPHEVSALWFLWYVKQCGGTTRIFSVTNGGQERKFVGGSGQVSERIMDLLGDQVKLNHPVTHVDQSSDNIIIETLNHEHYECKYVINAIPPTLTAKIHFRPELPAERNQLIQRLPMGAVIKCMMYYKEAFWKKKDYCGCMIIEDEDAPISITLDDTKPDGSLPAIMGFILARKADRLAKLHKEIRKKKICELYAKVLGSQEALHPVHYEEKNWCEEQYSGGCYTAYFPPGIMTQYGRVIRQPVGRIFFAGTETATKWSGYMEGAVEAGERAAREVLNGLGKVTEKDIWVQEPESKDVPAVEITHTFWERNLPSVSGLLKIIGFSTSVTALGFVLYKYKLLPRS

[7] = target: T4, Neuropeptide Y receptor type 2 (Homo sapiens, UniProt P49146); assay type: cell membranes, Membrane; settings: kan-ts; note: in other assays of this panel Not Active means under 50% inhibition at 10 µM
T4 sequence (P49146 whole entry): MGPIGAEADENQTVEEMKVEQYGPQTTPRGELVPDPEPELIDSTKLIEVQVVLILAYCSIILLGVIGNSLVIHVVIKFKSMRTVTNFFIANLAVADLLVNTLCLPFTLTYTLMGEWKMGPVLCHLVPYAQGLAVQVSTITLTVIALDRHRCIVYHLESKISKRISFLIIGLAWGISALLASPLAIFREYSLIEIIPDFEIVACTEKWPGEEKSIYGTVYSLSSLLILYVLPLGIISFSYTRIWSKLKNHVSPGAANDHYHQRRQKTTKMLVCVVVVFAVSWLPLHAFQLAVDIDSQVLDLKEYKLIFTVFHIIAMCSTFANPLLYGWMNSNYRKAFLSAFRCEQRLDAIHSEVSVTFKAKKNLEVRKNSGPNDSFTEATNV

[8] = DRUGMATRIX: Phorbol Ester radioligand binding (ligand: [3H] PDBu); assay type: cell membranes, Mus musculus, ICR, Brain, Membrane; settings: Not Active = under 50% inhibition at 10 µM
Caspase-1 = target: T5, Caspase-1 (Homo sapiens, UniProt P29466); design: species or system Escherichia coli
T5 sequence (P29466 whole entry): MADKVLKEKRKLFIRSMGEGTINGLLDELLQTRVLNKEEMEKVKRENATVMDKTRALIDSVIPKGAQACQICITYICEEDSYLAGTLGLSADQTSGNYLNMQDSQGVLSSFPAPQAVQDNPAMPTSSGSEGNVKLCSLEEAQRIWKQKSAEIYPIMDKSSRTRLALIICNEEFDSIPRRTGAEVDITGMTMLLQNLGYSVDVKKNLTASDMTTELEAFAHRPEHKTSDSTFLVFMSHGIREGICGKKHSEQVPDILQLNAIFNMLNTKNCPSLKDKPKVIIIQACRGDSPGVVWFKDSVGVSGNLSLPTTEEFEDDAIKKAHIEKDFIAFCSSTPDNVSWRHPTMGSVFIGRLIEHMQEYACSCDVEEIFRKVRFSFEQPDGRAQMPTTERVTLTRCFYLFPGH

[9] = target: Mitogen-activated protein kinase 14 (Homo sapiens, UniProt Q16539); design: species or system Escherichia coli
[10] = target: Tyrosine-protein kinase Lck (Homo sapiens, UniProt P06239); experiment: DRUGMATRIX: Protein Tyrosine Kinase, LCK enzyme inhibition (substrate: Poly(Glu:Tyr)); assay type: cell-based, Insect cells; settings: insect cells, Not Active = under 50% inhibition at 10 µM
Cytochrome P450 2C19 = Cytochrome P450 2C19 (Homo sapiens, UniProt P33261); settings: bti-tn-5b1-4; note: in other assays of this panel Not Active means under 50% inhibition at 10 µM
Cytochrome P450 2C19, sequence (P33261 whole entry): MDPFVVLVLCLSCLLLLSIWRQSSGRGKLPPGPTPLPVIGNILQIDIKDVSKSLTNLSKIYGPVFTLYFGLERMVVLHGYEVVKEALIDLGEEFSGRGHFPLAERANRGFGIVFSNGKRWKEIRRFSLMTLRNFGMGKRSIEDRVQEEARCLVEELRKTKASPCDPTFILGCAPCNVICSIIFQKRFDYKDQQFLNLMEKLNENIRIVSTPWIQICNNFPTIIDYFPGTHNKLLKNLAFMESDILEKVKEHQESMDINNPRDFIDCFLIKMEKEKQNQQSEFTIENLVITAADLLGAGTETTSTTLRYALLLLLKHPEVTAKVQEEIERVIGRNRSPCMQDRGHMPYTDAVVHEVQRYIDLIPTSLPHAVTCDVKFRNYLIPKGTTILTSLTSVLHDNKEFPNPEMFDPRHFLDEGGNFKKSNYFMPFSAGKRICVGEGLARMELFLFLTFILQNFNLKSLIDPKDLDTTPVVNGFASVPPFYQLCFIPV

5-hydroxytryptamine receptor 2B, sequence (P41595 whole entry): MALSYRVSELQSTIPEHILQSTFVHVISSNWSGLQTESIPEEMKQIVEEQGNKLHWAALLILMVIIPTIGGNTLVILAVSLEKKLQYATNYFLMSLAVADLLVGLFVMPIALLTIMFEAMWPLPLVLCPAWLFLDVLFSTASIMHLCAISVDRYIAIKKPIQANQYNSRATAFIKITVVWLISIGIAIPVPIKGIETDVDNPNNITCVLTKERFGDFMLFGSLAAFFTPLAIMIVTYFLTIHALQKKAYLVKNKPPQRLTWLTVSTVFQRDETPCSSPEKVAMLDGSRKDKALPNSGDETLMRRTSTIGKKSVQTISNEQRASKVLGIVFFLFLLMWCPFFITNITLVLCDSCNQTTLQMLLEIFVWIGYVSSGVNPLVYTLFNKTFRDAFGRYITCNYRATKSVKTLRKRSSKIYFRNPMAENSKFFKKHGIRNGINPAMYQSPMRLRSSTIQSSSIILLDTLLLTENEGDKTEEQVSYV
Prostaglandin G/H synthase 1, sequence (P23219 whole entry): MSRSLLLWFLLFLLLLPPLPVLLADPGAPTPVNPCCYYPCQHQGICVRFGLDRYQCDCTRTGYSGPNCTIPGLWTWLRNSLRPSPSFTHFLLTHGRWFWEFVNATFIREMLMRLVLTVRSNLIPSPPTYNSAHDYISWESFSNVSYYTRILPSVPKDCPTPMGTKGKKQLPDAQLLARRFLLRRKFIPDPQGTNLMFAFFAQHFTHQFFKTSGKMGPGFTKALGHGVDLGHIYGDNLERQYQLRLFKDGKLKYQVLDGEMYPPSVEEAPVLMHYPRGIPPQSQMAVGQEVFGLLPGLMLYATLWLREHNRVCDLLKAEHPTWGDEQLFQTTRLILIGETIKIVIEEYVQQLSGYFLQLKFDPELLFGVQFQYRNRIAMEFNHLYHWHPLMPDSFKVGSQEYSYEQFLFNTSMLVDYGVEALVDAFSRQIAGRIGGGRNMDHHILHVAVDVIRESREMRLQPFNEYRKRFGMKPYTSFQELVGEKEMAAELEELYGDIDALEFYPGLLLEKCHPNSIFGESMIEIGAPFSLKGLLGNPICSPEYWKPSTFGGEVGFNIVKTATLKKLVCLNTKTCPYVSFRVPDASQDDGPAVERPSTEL
Mitogen-activated protein kinase 14, sequence (Q16539 whole entry): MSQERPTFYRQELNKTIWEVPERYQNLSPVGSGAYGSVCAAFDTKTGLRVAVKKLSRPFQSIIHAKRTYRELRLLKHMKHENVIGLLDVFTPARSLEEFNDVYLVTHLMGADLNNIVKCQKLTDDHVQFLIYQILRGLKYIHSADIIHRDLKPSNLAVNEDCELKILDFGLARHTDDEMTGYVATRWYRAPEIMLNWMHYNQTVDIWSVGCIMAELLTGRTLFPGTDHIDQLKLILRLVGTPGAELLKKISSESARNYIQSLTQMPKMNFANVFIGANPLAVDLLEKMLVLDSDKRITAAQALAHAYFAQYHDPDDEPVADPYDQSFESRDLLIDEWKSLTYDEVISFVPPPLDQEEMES
Tyrosine-protein kinase Lck, sequence (P06239 whole entry): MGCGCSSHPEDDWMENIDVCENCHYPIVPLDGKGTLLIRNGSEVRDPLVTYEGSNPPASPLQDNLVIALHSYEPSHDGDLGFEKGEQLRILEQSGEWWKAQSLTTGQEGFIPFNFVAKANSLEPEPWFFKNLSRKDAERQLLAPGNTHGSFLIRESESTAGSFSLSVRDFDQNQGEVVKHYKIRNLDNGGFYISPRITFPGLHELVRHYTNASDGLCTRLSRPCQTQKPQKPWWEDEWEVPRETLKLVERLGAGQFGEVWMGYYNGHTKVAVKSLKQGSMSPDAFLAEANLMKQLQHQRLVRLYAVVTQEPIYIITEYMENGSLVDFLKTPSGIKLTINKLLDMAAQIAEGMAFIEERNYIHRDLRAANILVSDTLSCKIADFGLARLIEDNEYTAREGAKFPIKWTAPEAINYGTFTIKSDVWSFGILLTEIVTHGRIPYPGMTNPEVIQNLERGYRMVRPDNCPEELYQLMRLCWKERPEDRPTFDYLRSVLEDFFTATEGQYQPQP

| Molecule | IC50 [1] | IC50 (B2 bradykinin receptor) | IC50 [3] | Ki [3] | IC50 [4] | IC50 [5] | Ki [5] | IC50 [6] | IC50 [7] | IC50 [8] | Ki [8] | IC50 (Caspase-1) | IC50 [9] | IC50 [10] | IC50 (Cytochrome P450 2C19) | Ki (Cytochrome P450 2C19) | Ki [1] | Ki (B2 bradykinin receptor) | IC50 ([2]; cho-k1) | Ki ([2]; cho-k1) | other results |
| --- | --- | --- | --- | --- | --- | --- | --- | --- | --- | --- | --- | --- | --- | --- | --- | --- | --- | --- | --- | --- | --- |
| COc1ccc(CN(CCN(C)C)c2ccccn2)cc1 [PYRILAMINE] | Not Active | Not Active | Not Active | Not Active | Not Active | Not Active | Not Active | Not Active | Not Active | Not Active | Not Active | Not Active | Not Active | Not Active | Not Active | Not Active |  |  |  |  | IC50 ([2]; read-out: IC50): 2790 nM; Ki ([2]; read-out: Ki): 1770 nM |
| CARBOPLATIN | Not Active | Not Active | Not Active | Not Active | Not Active | Not Active | Not Active | Not Active | Not Active | Not Active | Not Active | Not Active | Not Active | Not Active | Not Active | Not Active | Not Active | Not Active | Not Active | Not Active | Ki [4]: Not Active; Ki [6]: Not Active; Ki [7]: Not Active; Ki (Caspase-1): Not Active; Ki [9]: Not Active; Ki [10]: Not Active |
| CISPLATIN | Not Active | Not Active | Not Active | Not Active | Not Active | Not Active | Not Active | Not Active | Not Active | Not Active | Not Active | Not Active | Not Active |  | Not Active | Not Active | Not Active | Not Active | Not Active | Not Active | Ki [4]: Not Active; Ki [6]: Not Active; Ki [7]: Not Active; Ki (Caspase-1): Not Active; Ki [9]: Not Active; IC50 ([10]; read-out: IC50): 22900 nM |
| GOLD SODIUM THIOMALATE | Not Active | Not Active | Not Active | Not Active | Not Active | Not Active | Not Active | Not Active | Not Active | Not Active | Not Active | Not Active | Not Active | Not Active | Not Active | Not Active | Not Active | Not Active | Not Active | Not Active | Ki [4]: Not Active; Ki [6]: Not Active; Ki [7]: Not Active; Ki (Caspase-1): Not Active; Ki [9]: Not Active; Ki [10]: Not Active |
| OXALIPLATIN | Not Active | Not Active | Not Active | Not Active | Not Active | Not Active | Not Active | Not Active | Not Active | Not Active | Not Active | Not Active | Not Active | Not Active | Not Active | Not Active | Not Active | Not Active | Not Active | Not Active | Ki [4]: Not Active; Ki [6]: Not Active; Ki [7]: Not Active; Ki (Caspase-1): Not Active; Ki [9]: Not Active; Ki [10]: Not Active |
